Source: patent publication US4883801A, “Xanthine derivative pest control agents” (priority 1986, dated 1989)
Entries after “also recorded” stand apart in the source; their conditions may differ. Each block holds one compound with its values, some of them ahead of it.

Key:
[1] = test system: Manduca sexta (tobacco hornworm) larvae; assay: Antifeeding test: tomato leaves sprayed with compound, tobacco hornworm larvae; assay type: in vivo; settings: for Vmax (percent inhibition of feeding at the highest dose used): highest dose usually a 3% spray solution; for EC50 (spray concentration required to cause 50% inhibition of feeding): spray on tomato leaves, calculated from dose-response curves, Manduca sexta 6 per leaf
[2] = biological target: hornworm nerve cord PDE (cyclic AMP phosphodiesterase); assay: Inhibition of cyclic AMP phosphodiesterase activity in homogenates of tobacco hornworm nerve cord; assay type: biochemical, Manduca sexta; settings: for activity of structurally similar compounds tested as described in Example 46: Example 47
Protocol: Nerve cord was dissected from 40-60 mm long M. sexta larvae, cleaned, and homogenized (2 mg/ml) in 6 Mm Tris-maleate, pH 7.4. PDE activity was measured (4 min. incubation at 30° C.) in an assay system (0.1 ml) containing 80 mM Tris-maleate, pH 7.4; 6 mM Mg--SO4; 10^-7 M^3 H-cyclic AMP; and tissue homogenate (0.02 ml). Nerve cord was evaluated in the presence and the absence of the xanthine derivative. For purposes of the evaluation, the rate of formation of ^3 H-5' AMP was measured using the technique described in Filburn, C. […] The values shown in FIG. 1D are the mean (±SEM) of three separate experiments.

[3] = test system: cockroach brain adenylate cyclase; settings: in vitro; cited from earlier work
[4] = test system: cockroach brain phosphodiesterase; settings: in vitro; cited from earlier work
[5] = test system: Culex (mosquito) larvae; assay: Killing of Culex larvae in solution; assay type: in vivo
[6] = test system: Tribolium confusum (flower beetle) adults; assay: Tribolium confusum adults: acute effect and chronic reproduction test; assay type: in vivo
[7] = test system: Tribolium castaneum (flower beetle) adults; assay: Tribolium castaneum adults: acute effect and chronic reproduction test; assay type: in vivo
[8] = test system: adenosine receptor; settings: Bruns et al., cited from earlier work

SMILES: CCCn1c(=O)c2c(ncn2Cc2ccccc2)n(CCC)c1=O [Example 30, 1,3-dipropyl,7-benzyl-xanthine]
- Vmax (percent inhibition of feeding at the highest dose used) [1]: 96%
- EC50 (spray concentration required to cause 50% inhibition of feeding) [1]: 0.08 % (gm/100 ml)

SMILES: CCCCn1c(=O)c2[nH]cnc2n(CCCC)c1=O [Example 31, 1,3-dibutyl-xanthine]
- Vmax (percent inhibition of feeding at the highest dose used) [1]: 90%
- EC50 (spray concentration required to cause 50% inhibition of feeding) [1]: 0.044 % (gm/100 ml)

SMILES: COc1ccc(Cc2nccc3cc(OC)c(OC)cc23)cc1OC [papavarine, reference compound]
- EC50, ability of Manducca to feed ([1]; in vivo): 0.1 % spray
- Ki ([2]; read-out: Ki, insect PDE): 40 µM

SMILES: COP(=O)(OC)Oc1ccc([N+](=O)[O-])cc1 [methylparaoxon]
- direct effect on cockroach brain adenylate cyclase (in words) [3]: essentially no direct effects

SMILES: Cn1c(=O)[nH]c2nc[nH]c2c1=O [Example 33, 1-methyl-xanthine]
- Vmax (percent inhibition of feeding at the highest dose used) [1]: 21%
- EC50 (spray concentration required to cause 50% inhibition of feeding) [1]: > 3 % (gm/100 ml)

SMILES: CC(C)CCn1c(=O)c2[nH]cnc2n(CC(C)C)c1=O [Example 21, 1-isoamyl,3-isobutyl-xanthine]
- Vmax (percent inhibition of feeding at the highest dose used) [1]: > 52%
- EC50 (spray concentration required to cause 50% inhibition of feeding) [1]: 0.2 % (gm/100 ml)

SMILES: CCn1c(=O)c2[nH]cnc2n(CC)c1=O [Example 16, 1,3-diethyl-xanthine]
- Vmax (percent inhibition of feeding at the highest dose used) [1]: 98%
- EC50 (spray concentration required to cause 50% inhibition of feeding) [1]: 0.33 % (gm/100 ml)

SMILES: CCCn1c(=O)c2[nH]cnc2n(CCC)c1=O [Example 17, 1,3-dipropyl-xanthine]
- Vmax (percent inhibition of feeding at the highest dose used) [1]: 95%
- EC50 (spray concentration required to cause 50% inhibition of feeding) [1]: 0.035 % (gm/100 ml)

SMILES: Cn1c(=O)c2c(nc(Cl)n2C)n(C)c1=O [Example 44, 1,3,7-trimethyl-8-chloro-xanthine]
- Vmax (percent inhibition of feeding at the highest dose used) [1]: 40%
- EC50 (spray concentration required to cause 50% inhibition of feeding) [1]: > 3 % (gm/100 ml)

SMILES: CC(=O)n1cnc2c1c(=O)n(C)c(=O)n2C [Example 41, 1,3-dimethyl-7-acetyl-xanthine]
- Vmax (percent inhibition of feeding at the highest dose used) [1]: 18%
- EC50 (spray concentration required to cause 50% inhibition of feeding) [1]: > 3 % (gm/100 ml)

SMILES: Clc1ccc(C(c2ccc(Cl)cc2)C(Cl)(Cl)Cl)cc1 [DDT]
- effect on cockroach brain phosphodiesterase (in words) [4]: activators of phosphodiesterase
- direct effect on cockroach brain adenylate cyclase (in words) [3]: essentially no direct effects

SMILES: Cn1c(=O)c2c([nH]c(=O)n2C)n(C)c1=O [Example 40, 1,3,7-trimethyl-uric acid]
- Vmax (percent inhibition of feeding at the highest dose used) [1]: 40%
- EC50 (spray concentration required to cause 50% inhibition of feeding) [1]: > 3 % (gm/100 ml)

SMILES: O=c1c2[nH]cnc2n(Cc2ccccc2)c(=O)n1Cc1ccccc1 [Example 19, 1,3-dibenzyl-xanthine]
- Vmax (percent inhibition of feeding at the highest dose used) [1]: 70%
- EC50 (spray concentration required to cause 50% inhibition of feeding) [1]: 0.45 % (gm/100 ml)

SMILES: O=c1[nH]c(=O)c2[nH]cnc2[nH]1 [Example 32, xanthine]
- Vmax (percent inhibition of feeding at the highest dose used) [1]: 0%
- EC50 (spray concentration required to cause 50% inhibition of feeding) [1]: > 3 % (gm/100 ml)

SMILES: CNC(=O)O/N=C/C(C)(C)SC [Aldicarb]
- direct effect on cockroach brain adenylate cyclase (in words) [3]: essentially no direct effects

SMILES: CC(O)Cn1cnc2c1c(=O)n(C)c(=O)n2C (stereo not drawn) [Example 25, 1,3-dimethyl,7-(beta-hydroxypropyl-xanthine)]
- Vmax (percent inhibition of feeding at the highest dose used) [1]: 95%
- EC50 (spray concentration required to cause 50% inhibition of feeding) [1]: 1.5 % (gm/100 ml)

SMILES: CCCn1c(=O)c2c(ncn2C)n(CCC)c1=O [Example 28, 1,3-dipropyl,7-methyl-xanthine]
- Vmax (percent inhibition of feeding at the highest dose used) [1]: 84%
- EC50 (spray concentration required to cause 50% inhibition of feeding) [1]: 0.48 % (gm/100 ml)

SMILES: CCOP(=O)(OCC)OP(=O)(OCC)OCC [TEPP]
- direct effect on cockroach brain adenylate cyclase (in words) [3]: essentially no direct effects

SMILES: C=CCn1c(=O)c2[nH]cnc2n(CC=C)c1=O [Example 18, 1,3-diallyl-xanthine]
- Vmax (percent inhibition of feeding at the highest dose used) [1]: 99%
- EC50 (spray concentration required to cause 50% inhibition of feeding) [1]: 0.35 % (gm/100 ml)

SMILES: Cn1c(=O)c2ncn(C)c2n(C)c1=O [Example 45, 1,3,9-trimethyl-xanthine]
- pesticidal and pestistatic activity class (active / inactive / weakly active) ([1]; Table 1 grouping): weakly active
- Vmax (percent inhibition of feeding at the highest dose used) [1]: 50%
- EC50 (spray concentration required to cause 50% inhibition of feeding) [1]: > 3 % (gm/100 ml)

SMILES: CCCn1c(=O)c2c(ncn2CCC)n(CCC)c1=O [Example 29, 1,3,7-tripropyl-xanthine]
- Vmax (percent inhibition of feeding at the highest dose used) [1]: 95%
- EC50 (spray concentration required to cause 50% inhibition of feeding) [1]: 0.19 % (gm/100 ml)

SMILES: Cc1ccc2nc3sc(=O)sc3nc2c1 [Oxythioquinox]
- effect on cockroach brain phosphodiesterase (in words) [4]: most potent inhibitor
- inhibition of cockroach brain phosphodiesterase [4]: over 80%
- direct effect on cockroach brain adenylate cyclase (in words) [3]: essentially no direct effects

SMILES: Cn1cnc2c1c(=O)[nH]c(=O)n2C [Example 27, 3,7-dimethyl-xanthine (theobromine), reference compound]
- Vmax (percent inhibition of feeding at the highest dose used) [1]: 87%
- EC50 (spray concentration required to cause 50% inhibition of feeding) [1]: 1.0 % (gm/100 ml)

SMILES: C=C(C)[C@H]1Cc2c(ccc3c2O[C@@H]2COc4cc(OC)c(OC)cc4[C@@H]2C3=O)O1 [Rotenone]
- direct effect on cockroach brain adenylate cyclase (in words) [3]: essentially no direct effects

- potency in PDE inhibition relative to theophylline [2]: about 10 fold
- EC50, inhibition of reproduction ([6]; chronic tests): 0.2%
- EC50, inhibition of reproduction ([7]; chronic tests): 0.2%
SMILES: CC(C)Cn1c(=O)n(C)c(=O)c2[nH]cnc21 [Example 20, 1-methyl,3-isobutyl-xanthine]
- antifeeding effects in the presence of diltiazem and procaine ([1]; Example 13): neither reversing the observed antifeeding effects
- pestistatic and pesticidal effects in the presence of D600, verapamil, and nimodipine ([1]; Example 14): appeared unaffected
- Vmax (percent inhibition of feeding at the highest dose used) [1]: 95%
- potency in disruption of feeding relative to theophylline ([1]; in vivo): about 10 fold
- EC50 (spray concentration required to cause 50% inhibition of feeding) [1]: 0.3 % (gm/100 ml)
- EC50, killing of larvae [5]: 0.007%
- effect on adults ([6]; doses up to 3%): unaffected
- effect on adults ([7]; doses up to 3%): unaffected
- potency in blocking adenosine receptors compared with theophylline (in words) [8]: roughly equally potent

- activity of structurally similar compounds tested as described in Example 46 [2]: inactive
SMILES: Cn1c(=O)[nH]c2ncn(C)c2c1=O [Example 38, 1,7-dimethyl-xanthine]
- Vmax (percent inhibition of feeding at the highest dose used) [1]: 30%
- EC50 (spray concentration required to cause 50% inhibition of feeding) [1]: > 3 % (gm/100 ml)

SMILES: Cc1nc2[nH]c(=O)[nH]c(=O)c2[nH]1 [Example 36, 8-methyl-xanthine]
- Vmax (percent inhibition of feeding at the highest dose used) [1]: 35%
- EC50 (spray concentration required to cause 50% inhibition of feeding) [1]: > 3 % (gm/100 ml)

- activity of structurally similar compounds tested as described in Example 46 [2]: only weakly active
SMILES: Cn1c(=O)c2ncn(C)c2n(C)c1=O [1,3,9-trimethyl-xanthine]

SMILES: C=CCC1=C(C)C(OC(=O)C2C(C=C(C)C)C2(C)C)CC1=O (stereo not drawn) [Allethrin]
- direct effect on cockroach brain adenylate cyclase (in words) [3]: essentially no direct effects

SMILES: CCn1c(=O)n(CCc2ccccc2)c(=O)c2[nH]cnc21 [Example 22, 1-phenethyl,3-ethyl-xanthine]
- Vmax (percent inhibition of feeding at the highest dose used) [1]: 96%
- EC50 (spray concentration required to cause 50% inhibition of feeding) [1]: 0.6 % (gm/100 ml)

SMILES: Cn1cnc2[nH]c(=O)[nH]c(=O)c21 [Example 35, 7-methyl-xanthine]
- Vmax (percent inhibition of feeding at the highest dose used) [1]: 29%
- EC50 (spray concentration required to cause 50% inhibition of feeding) [1]: > 3 % (gm/100 ml)

SMILES: COc1nc2c(c(=O)n(C)c(=O)n2C)n1C [Example 26, 1,3,7-trimethyl,8-methoxy-xanthine]
- Vmax (percent inhibition of feeding at the highest dose used) [1]: 86%
- EC50 (spray concentration required to cause 50% inhibition of feeding) [1]: 0.5 % (gm/100 ml)

SMILES: ClC1=C(Cl)[C@]2(Cl)[C@@H]3[C@@H]4C[C@@H]([C@H]5O[C@@H]45)[C@@H]3[C@@]1(Cl)C2(Cl)Cl [Dieldrin]
- effect on cockroach brain phosphodiesterase (in words) [4]: activators of phosphodiesterase
- direct effect on cockroach brain adenylate cyclase (in words) [3]: essentially no direct effects

- PDE inhibition (in words) ([2]; FIG. 1D): very weak PDE inhibitor
SMILES: Cn1c(=O)c2[nH]c(-c3ccccc3)nc2n(C)c1=O [Example 42, 1,3-dimethyl-8-phenyl-xanthine]
- antifeeding effect (in words) ([1]; FIG. 1C, listed as 8-phenyltheophylline): relatively weak effects; also recorded: little antifeeding effect
- Vmax (percent inhibition of feeding at the highest dose used) [1]: 38%
- EC50 (spray concentration required to cause 50% inhibition of feeding) [1]: > 3 % (gm/100 ml)
- Ki ([8]; Daly 1982): 0.12 to 1 µM

SMILES: Cn1c(=O)c2c(ncn2CCCl)n(C)c1=O [Example 24, 1,3-dimethyl,7-(2-chlorethyl)-xanthine]
- Vmax (percent inhibition of feeding at the highest dose used) [1]: 95%
- EC50 (spray concentration required to cause 50% inhibition of feeding) [1]: 0.3 % (gm/100 ml)

SMILES: Cn1c(=O)[nH]c(=O)c2[nH]cnc21 [Example 34, 3-methyl-xanthine]
- Vmax (percent inhibition of feeding at the highest dose used) [1]: 8%
- EC50 (spray concentration required to cause 50% inhibition of feeding) [1]: > 3 % (gm/100 ml)

SMILES: CCCn1c(=O)c2[nH]c(-c3ccccc3)nc2n(CCC)c1=O [Example 43, 1,3-dipropyl-8-phenyl-xanthine]
- Vmax (percent inhibition of feeding at the highest dose used) [1]: 0%
- EC50 (spray concentration required to cause 50% inhibition of feeding) [1]: > 3 % (gm/100 ml)

SMILES: Cn1c(=O)[nH]c2[nH]c(=O)n(C)c2c1=O [Example 39, 1,7-dimethyl-uric acid]
- Vmax (percent inhibition of feeding at the highest dose used) [1]: 30%
- EC50 (spray concentration required to cause 50% inhibition of feeding) [1]: > 3 % (gm/100 ml)

SMILES: Cc1cc(OC(=O)N(C)C)nn1C(=O)N(C)C [Dimetilan]
- direct effect on cockroach brain adenylate cyclase (in words) [3]: essentially no direct effects
